From US6417212B1, “Modulators of peroxisome proliferator activated receptors” (Eli Lilly & Company, priority 1999, dated 2002) come the findings set out here.

For assay [1], the system named is Hu apoAI transgenic mice. Kind of assay: Evaluation of triglyceride and cholesterol levels in Hu apoAI transgenic mice. Particulars: Mus musculus, 168 h, 30 mg/kg daily oral gavage for 7 days; for change in vivo at 30 mg/kg: pooled sera, read-out: % HDLc Increase (serum, FPLC area under the curve, over vehicle); for inhibition in vivo at 30 mg/kg: serum 3 hours after dosing on day 7, read-out: % Triglyceride Decrease (serum, over mice receiving vehicle). Format: in vivo. As for the experimental part:
After an acclimation period of 2 weeks, animals were individually identified by ear notches, weighed, and assigned to groups based on body weight. Beginning the following morning, mice were dosed daily by oral gavage for 7 days using a 20 gauge, 11⁄2 curved disposable feeding needle (Popper & Sons). […] Prior to termination on day 7, mice were weighed and dosed. Three hours after dosing, animals were anesthetized by inhalation of isoflurane (2-4%; Abbott Laboratories, Chicago, Ill.) and blood obtained via cardiac puncture (0.7-1.0 ml). Whole blood was transferred to serum separator tubes (Vacutainer SST), chilled on ice, and permitted to clot. Serum was obtained after centrifugation at 4° C. and frozen until analysis for triglycerides, total cholesterol, compound levels, and serum lipoprotein profile by fast protein liquid chromatography (FPLC) coupled to an inline detection system. After sacrifice by cervical dislocation, the liver, heart and epididymal fat pads were excised and weighed. […] The percentage decrease in triglyceride serum levels in mice receiving a compound of the invention over mice receiving vehicle are reported in Table 2. […] The absorbance of the dye produced is linearly related to the analyte in the sample. The assays were further modified in our laboratory for use in a 96 well format. […] An additional aliquot of sample, pipetted to a third well and diluted in 200 μl water, provided a blank for each specimen. […] All samples from an experiment were assayed at the same time to minimize inter-assay variability. Serum lipoproteins were separated and cholesterol quantitated with an in-line detection system. […] The change in voltage corresponding to change in cholesterol concentration was plotted vs time and the area under the curve corresponding to the elution of VLDL, LDL and HDL was calculated using Perkin Elmer Turbochrome software.

Assay [2] addresses T1, huPPARγ (Homo sapiens, UniProt P37231).
T1 sequence (P37231 1-505): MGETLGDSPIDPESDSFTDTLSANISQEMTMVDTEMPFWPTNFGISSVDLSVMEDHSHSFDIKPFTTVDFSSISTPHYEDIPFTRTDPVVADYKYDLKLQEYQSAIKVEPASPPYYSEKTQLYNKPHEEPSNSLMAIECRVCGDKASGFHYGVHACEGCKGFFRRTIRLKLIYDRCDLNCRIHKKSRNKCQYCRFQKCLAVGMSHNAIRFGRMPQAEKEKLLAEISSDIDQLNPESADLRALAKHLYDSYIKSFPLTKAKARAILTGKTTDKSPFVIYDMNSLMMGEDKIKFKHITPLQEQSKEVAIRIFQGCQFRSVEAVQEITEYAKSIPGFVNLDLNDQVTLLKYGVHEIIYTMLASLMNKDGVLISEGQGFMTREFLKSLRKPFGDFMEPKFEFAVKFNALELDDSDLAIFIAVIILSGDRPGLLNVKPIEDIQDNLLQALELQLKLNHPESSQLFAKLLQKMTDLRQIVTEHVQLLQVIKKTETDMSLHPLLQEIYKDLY
T1 sequence (P19793 1-462 partner): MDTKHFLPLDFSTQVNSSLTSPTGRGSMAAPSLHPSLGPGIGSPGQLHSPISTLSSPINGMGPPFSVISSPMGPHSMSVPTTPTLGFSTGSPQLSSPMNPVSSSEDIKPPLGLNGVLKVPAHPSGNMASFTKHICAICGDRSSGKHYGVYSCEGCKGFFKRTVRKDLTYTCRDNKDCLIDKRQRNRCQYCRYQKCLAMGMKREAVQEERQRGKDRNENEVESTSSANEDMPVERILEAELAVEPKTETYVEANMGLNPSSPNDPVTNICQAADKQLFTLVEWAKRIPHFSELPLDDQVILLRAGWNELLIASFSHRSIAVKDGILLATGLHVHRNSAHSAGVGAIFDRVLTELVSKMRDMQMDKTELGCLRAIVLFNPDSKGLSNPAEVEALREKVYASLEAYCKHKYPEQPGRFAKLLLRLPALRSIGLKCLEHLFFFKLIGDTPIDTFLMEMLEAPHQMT
Briefly: Cotransfection assay in CV-1 cells, huPPARγ. The class given is cell-based. Details: expressed in transfected cells; host or cells: CV-1 cells. Conditions: AOX PPRE luciferase reporter, relative to agonist reference molecule, read-out: huPPARγ CTF Efficacy. On the procedure:
DNA-dependent binding (ABCD binding) was carried out using SPA technology with PPAR receptors. […] Cotransfection assays were carried out in CV-1 cells. The reporter plasmid contained an acylCoA oxidase (AOX) PPRE and TK promoter upstream of the luciferase reporter cDNA. Appropriate PPARs and RXRα were constitutively expressed using plasmids containing the CMV promoter. […] In order to eliminate such interference, a GAL4 chimeric system was used in which the DNA binding domain of the transfected PPAR was replaced by that of GAL4, and the GAL4 response element was utilized in place of the AOX PPRE. […] Efficacies were determined by computer fit to a concentration-response curve, or in some cases at a single high concentration of agonist (10 μM). For binding or cotransfection studies with receptors other than PPARs, similar assays were carried out using appropriate ligands, receptors, reporter constructs, etc., for that particular receptor.
These studies were carried out to evaluate the ability of compounds of the invention to bind to and/or activate various nuclear transcription factors, particularly huPPARα (“hu” indicates “human”) and huPPARγ. These studies provide in vitro data concerning efficacy and selectivity of compounds of the invention. Furthermore, binding and cotransfection data for compounds of the invention were compared with corresponding data for marketed compounds that act on either huPPARα or huPPARγ.
For orientation: A reporter such as luciferase makes a cellular process visible.

`Cc1oc(-c2ccc(-c3c(F)cccc3F)cc2)nc1CCOc1ccc(OC(C)(C)C(=O)O)cc1` [Example 14, 2-(4-{2-[2-(2′,6′-Difluorobiphenyl-4-yl)-5-methyloxazol-4-yl]-ethoxy}-phenoxy)-2-methylpropionic acid]: in assay [1], the change in vivo at 30 mg/kg stood at 66% and the inhibition in vivo at 30 mg/kg was 67.5%. For the same compound, the Emax in assay [2] was determined as 84%.

`Cc1oc(-c2ccc(-c3ccccc3)cc2)nc1CCOc1cccc(OC(C)(C)C(=O)O)c1` [Example 21, 2-{3-[2-(2-Biphenyl-4-yl-5-methyloxazol-4-yl)ethoxy]phenoxy}-2-methylpropionic acid]: in assay [1], the change in vivo at 30 mg/kg is 204% and the inhibition in vivo at 30 mg/kg worked out at 60.5%. Moreover, in assay [2], the Emax came to 70%.

With `Cc1sc(-c2cccc(-c3ccccc3)c2)nc1CCOc1ccc(OC(C)(C)C(=O)O)cc1` [Example 46, 2-{4-[2-(2-Biphenyl-3-yl-5-methyl-thiazol-4-yl)-ethoxy]-phenoxy}-2-methyl-propionic acid], in assay [1], the change in vivo at 30 mg/kg worked out at 26% and the inhibition in vivo at 30 mg/kg is 16.4%. Besides, the Emax in assay [2] was 142%.
